According to US20250129073A1, “INHIBITOR OF RECEPTOR-INTERACTING PROTEIN KINASE 1, AND PREPARATION METHOD AND USE THEREFOR” (CHINA PHARMACEUTICAL UNIVERSITY, priority 2021, published 2025):

Molecular target: RIPK1 kinase (Homo sapiens (Human), UniProt Q13546)
Test: RIPK1 kinase inhibitory assay (ADP-Glo)
Type: biochemical
Details: 10 μM compound; read-out: Inhibition rate of RIPK1 at 10 μM (%)
Method: Materials and Instruments: ADP-Glo kinase kit (purchased from Promega), RIPK1 GST-Th-Tag (purchased from Bps Bioscience), MBP substrate (purchased from Millipore), nunc 384-well plate, ATP fluorescence analyzer Paradigm detection platform (purchased from Beckman coulter)
The compounds were diluted in DMSO and configured into a solution with a final concentration of 10 mM; Dilute RIP1 kinase from 140 ng/μL to 20 ng/μL for use. Dilute 10 mM of ATP to 100 μM for later use; Dilute 5 mg/mL of MBP to 1 mg/mL for later use. Appropriate embodiments were added into the well of the 384-well plate, 10 μl […] ATP was evenly mixed with 1 μl 1 mg/mL MB P, the mixed solution was added to the well, and 2 μL […] RIP1 kinase was added to the hole, and then incubated at room temperature for 1 h. Subsequently, 5 μL ADP-Glo reagent was added to each well and incubated at room temperature for 40 min. Then, 10 μL ADP-Glo detection reagent was added to each well and incubated at room temperature for 30 min. Finally, the RLU value (relative light unit) of each well was measured by ATP fluorometer, and each sample was repeated twice. Inhibition rate=(RLU value of blank group−RLU value of drug administration group)/RLU value of blank group×100%.

Chain of RIPK1 kinase (Q13546 whole entry): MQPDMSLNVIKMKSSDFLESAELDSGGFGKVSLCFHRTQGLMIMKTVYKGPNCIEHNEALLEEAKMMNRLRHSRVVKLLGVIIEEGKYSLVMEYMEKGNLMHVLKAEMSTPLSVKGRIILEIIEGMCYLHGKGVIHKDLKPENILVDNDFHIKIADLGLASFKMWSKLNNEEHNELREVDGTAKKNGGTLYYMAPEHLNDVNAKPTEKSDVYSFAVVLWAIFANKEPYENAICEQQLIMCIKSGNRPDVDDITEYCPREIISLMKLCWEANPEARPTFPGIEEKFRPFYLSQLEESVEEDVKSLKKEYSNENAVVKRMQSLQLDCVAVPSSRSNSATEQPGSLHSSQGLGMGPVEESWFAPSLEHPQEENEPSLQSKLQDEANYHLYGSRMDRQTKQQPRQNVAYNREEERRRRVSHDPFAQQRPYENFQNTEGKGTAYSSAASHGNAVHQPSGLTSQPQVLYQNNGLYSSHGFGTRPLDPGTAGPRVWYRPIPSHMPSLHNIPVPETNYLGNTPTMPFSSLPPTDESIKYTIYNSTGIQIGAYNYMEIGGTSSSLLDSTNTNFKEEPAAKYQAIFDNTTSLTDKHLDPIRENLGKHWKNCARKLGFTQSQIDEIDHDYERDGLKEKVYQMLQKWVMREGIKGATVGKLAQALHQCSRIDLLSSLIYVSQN

| SMILES | inhibition at 10 µM [%] |
| --- | --- |
| O=C(c1ccccc1)N1CCC2(CC1)CCN(Cc1c(F)cccc1F)C2=O [Compound 37, 8-benzoyl-2-(2,6-difluorobenzyl)-2,8-diazaspiro[4.5]decan-1-one] | > 50 |
| O=C(c1ccccc1)N1CCC2(CC1)CCN(Cc1ccc(F)c(F)c1F)C2=O [Compound 38, 8-benzoyl-2-(2,3,4-trifluorobenzyl)-2,8-diazaspiro[4.5]decan-1-one] | > 50 |
| O=C(c1ccccc1)N1CCC2(CC1)CCN(Cc1ccc(Cl)cc1F)C2=O [Compound 39, 8-benzoyl-2-(4-chloro-2-fluorobenzyl)-2,8-diazaspiro[4.5]decan-1-one] | > 50 |
| O=C(c1ccccc1)N1CCC2(CC1)CCN(Cc1cccc(F)c1F)C2=O [Compound 40, 8-benzoyl-2-(2,3-difluorobenzyl)-2,8-diazaspiro[4.5]decan-1-one] | > 50 |
| O=C(c1ccccc1)N1CCC2(CC1)CCN(Cc1cc(F)c(F)cc1F)C2=O [Compound 41, 8-benzoyl-2-(2,4,5-trifluorobenzyl)-2,8-diazaspiro[4.5]decan-1-one] | > 50 |
| O=C(c1ccccc1)N1CCC2(CC1)CCN(Cc1ccc(F)cc1F)C2=O [Compound 43, 8-benzoyl-2-(2,4-difluorobenzyl)-2,8-diazaspiro[4.5]decan-1-one] | > 50 |
| O=C(c1ccccc1)N1CCC2(CC1)CCN(Cc1c(F)cccc1Cl)C2=O [Compound 45, 8-benzoyl-2-(2-chloro-6-fluorobenzyl)-2,8-diazaspiro[4.5]decan-1-one] | 43 |
| O=C(c1ccccc1)N1CCC2(CC1)CCN(Cc1cc(Cl)ccc1F)C2=O [Compound 47, 8-benzoyl-2-(5-chloro-2-fluorobenzyl)-2,8-diazaspiro[4.5]decan-1-one] | > 50 |
| N#Cc1ccc(CN2CCC3(CCN(C(=O)c4ccccc4)CC3)C2=O)c(F)c1 [Compound 48, 4-((8-benzoyl-1-oxo-2,8-diazaspiro[4.5]decan-2-yl)methyl)-3-fluorobenzonitrile] | 8 |
| O=C1N(Cc2cc(F)ccc2F)CCC12CCN(c1ncccn1)CC2 [Compound 51, 2-(2,5-difluorobenzyl)-8-(pyrimidin-2-yl)-2,8-diazaspiro[4.5]decan-1-one] | 41 |
| N#Cc1ccnc(N2CCC3(CCN(Cc4cc(F)ccc4F)C3=O)CC2)n1 [Compound 52, 2-(2-(2,5-difluorobenzyl)-1-oxo-2,8-diazaspiro[4.5]decan-8-yl) pyrimidine-4-carbonitrile] | > 50 |
| O=C(c1ccccc1)N1CCC2(CC1)CCN(Cc1cc(F)cc(F)c1F)C2=O [Compound 53, 8-benzoyl-2-(2,3,5-trifluorobenzyl)-2,8-diazaspiro[4.5]decan-1-one] | > 50 |
| N#Cc1ccccc1CN1CCC2(CCN(C(=O)c3ccccc3)CC2)C1=O [Compound 54, 2-((8-benzoyl-1-oxo-2,8-diazaspiro[4.5]decan-2-yl)methyl) benzonitrile] | 6 |
| Cc1nnc(N2CCC3(CCN(Cc4cc(F)ccc4F)C3=O)CC2)o1 [Compound 55, 2-(2,5-difluorobenzyl)-8-(5-methyl-1,3,4-oxadiazol-2-yl)-2,8-diazaspiro[4.5]decan-1-one] | 13 |
| N#Cc1ccc(N2CCC3(CCN(Cc4cc(F)ccc4F)C3=O)CC2)nn1 [Compound 56, 6-(2-(2,5-difluorobenzyl)-1-oxo-2,8-diazaspiro[4.5]decan-8-yl)pyridazine-3-carbonitrile] | 17 |
| N#Cc1ccc(F)cc1CN1CCC2(CCN(C(=O)c3ccccc3)CC2)C1=O [Compound 57, 2-((8-benzoyl-1-oxo-2,8-diazaspiro[4.5]decan-2-yl)methyl)-4-fluorobenzonitrile] | 25 |

| SMILES | inhibition at 10 µM [%] |
| --- | --- |
| N#Cc1cc(N2CCC3(CCN(Cc4cc(F)ccc4F)C3=O)CC2)ncn1 [Compound 58, 6-(2-(2,5-difluorobenzyl)-1-oxo-2,8-diazaspiro[4.5]decan-8-yl)pyrimidine-4-carbonitrile] | > 50 |
| O=C(c1ccccc1)N1CCC2(CC1)N=CN(Cc1ccccc1)C2=O [Compound 59, 8-benzoyl-3-benzyl-1,3,8-triazaspiro[4.5]dec-1-en-4-one] | 38 |
| O=C(c1ccccc1)N1CCC2(CC1)N=CN(Cc1ccccc1F)C2=O [Compound 60, 8-benzoyl-3-(2-fluorobenzyl)-1,3,8-triazaspiro[4.5]dec-1-en-4-one] | > 50 |
| O=C(c1ccccc1)N1CCC2(CC1)N=CN(Cc1cc(F)ccc1F)C2=O [Compound 61, 8-benzoyl-3-(2,5-difluorobenzyl)-1,3,8-triazaspiro[4.5]dec-1-en-4-one] | > 50 |
| O=C(c1ccccc1)N1CCC2(C=NN(Cc3ccccc3)C2=O)CC1 [Compound 62, 8-benzoyl-2-benzyl-2,3,8-triazaspiro[4.5]dec-3-en-1-one] | > 50 |
| O=C(c1ccccc1)N1CCC2(C=NN(Cc3ccccc3F)C2=O)CC1 [Compound 63, 8-benzoyl-2-(2-fluorobenzyl)-2,3,8-triazaspiro[4.5]dec-3-en-1-one] | > 50 |
| O=C(c1ccccc1)N1CCC2(C=NN(Cc3cccc(F)c3)C2=O)CC1 [Compound 64, 8-benzoyl-2-(3-fluorobenzyl)-2,3,8-triazaspiro[4.5]dec-3-en-1-one] | > 50 |
| O=C(c1ccccc1)N1CCC2(C=NN(Cc3ccc(F)cc3)C2=O)CC1 [Compound 65, 8-benzoyl-2-(4-fluorobenzyl)-2,3,8-triazaspiro[4.5]dec-3-en-1-one] | 27 |
| O=C(c1ccccc1)N1CCC2(C=NN(Cc3cc(F)ccc3F)C2=O)CC1 [Compound 66, 8-benzoyl-2-(2,5-difluorobenzyl)-2,3,8-triazaspiro[4.5]dec-3-en-1-one] | > 50 |
| O=C(c1ccccc1)N1CCC2(C=NN(Cc3cc(F)cc(F)c3)C2=O)CC1 [Compound 67, 8-benzoyl-2-(3,5-difluorobenzyl)-2,3,8-triazaspiro[4.5]dec-3-en-1-one] | > 50 |
| O=C(c1ccccc1)N1CCC2(C=NN(Cc3cccc(C(F)(F)F)c3)C2=O)CC1 [Compound 68, 8-benzoyl-2-(3-(trifluoromethyl)benzyl)-2,3,8-triazaspiro[4.5]dec-3-en-1-one] | 13 |
| N#Cc1ccc(CN2N=CC3(CCN(C(=O)c4ccccc4)CC3)C2=O)cc1 [Compound 69, 4-((8-benzoyl-1-oxo-2,3,8-triazaspiro[4.5]dec-3-en-2-yl)methyl) benzonitrile] | 9 |
| O=C(c1ccccc1)N1CCC2(C=NN(Cc3cccc(Cl)c3)C2=O)CC1 [Compound 70, 8-benzoyl-2-(3-chlorobenzyl)-2,3,8-triazaspiro[4.5]dec-3-en-1-one] | 44 |
| O=C(c1ccccc1)N1CCC2(CC1)CNN(Cc1ccccc1)C2=O [Compound 71, 8-benzoyl-2-benzyl-2,3,8-triazaspiro[4.5]decan-1-one] | 31 |
| O=C(c1ccccc1)N1CCC2(CC1)CNN(Cc1ccccc1F)C2=O [Compound 72, 8-benzoyl-2-(2-fluorobenzyl)-2,3,8-triazaspiro[4.5]decan-1-one] | 40 |
| O=C(c1ccccc1)N1CCC2(CC1)CN(Cc1ccccc1)C2=O [Compound 73, 7-benzoyl-2-benzyl-2,7-diazaspiro[3.5]nonan-1-one] | 45 |
